# In patent US10280171B2, “Heterocyclic inhibitors of PTPN11” (priority 2016, dated 2019):
# Structures can show the parent of a compound that is named as a salt. Where two headings read alike, the source gives them in different places.
# How the values were obtained:
# [1] = system: Phospho-ERK levels in KYSE-520 cells; test: pERK AlphaScreen Protocol; type: cell-based; conditions: read-out: PERK Avg IC50
# Experimental: KYSE-520 cells (10 k cells/well) were grown in 384-well plate in 20 uL of medium (RPMI-1640, without phenol red, containing 10% FBS) at 37° C. with 5% CO2 overnight. DMSO (control) or increasing concentrations of compounds were diluted in medium, added to the 384-well plate (5 uL/well, final DMSO concentration of 1%), and cells were then incubated with compounds for 2 hr. Phospho-ERK levels were measured using phospho-ERK1/2 AlphaScreen SureFire (PerkinElmer, TGRESB10K) following manufacturer's recommendations. Dose-response curves were analyzed using IC50 regression curve fitting (GeneData Screener). Curves were normalized to a high control without inhibitor (DMSO only), and low control (1 μM selumetinib).
# [2] = target: PTPN11-E76K mutant enzyme (Homo sapiens (Human), UniProt Q06124, E76K); test: PTPN11 Enzymatic Assay (DiFMUP phosphatase activity); type: biochemical; conditions: DiFMUP 50 μM, 30 min preincubation
# Chain of PTPN11-E76K mutant enzyme (Q06124 whole entry E76K): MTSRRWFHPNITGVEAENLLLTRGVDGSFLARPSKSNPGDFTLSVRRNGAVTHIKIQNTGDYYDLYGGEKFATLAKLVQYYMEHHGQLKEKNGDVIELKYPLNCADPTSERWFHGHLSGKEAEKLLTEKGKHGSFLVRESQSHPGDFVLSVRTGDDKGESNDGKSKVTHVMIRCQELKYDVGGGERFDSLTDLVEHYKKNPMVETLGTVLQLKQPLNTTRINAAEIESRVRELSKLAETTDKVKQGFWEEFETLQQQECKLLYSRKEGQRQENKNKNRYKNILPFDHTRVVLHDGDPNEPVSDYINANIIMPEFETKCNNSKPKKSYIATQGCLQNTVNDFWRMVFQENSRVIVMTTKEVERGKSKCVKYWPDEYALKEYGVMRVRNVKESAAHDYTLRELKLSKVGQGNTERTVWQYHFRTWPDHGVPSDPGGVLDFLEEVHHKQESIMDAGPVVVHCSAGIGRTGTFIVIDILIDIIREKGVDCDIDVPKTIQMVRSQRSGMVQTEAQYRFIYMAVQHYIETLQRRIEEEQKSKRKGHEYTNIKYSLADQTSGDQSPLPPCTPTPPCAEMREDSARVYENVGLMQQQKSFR
# Experimental: Reaction was initiated by addition of DiFMUP (50 μM) at room temperature in 384-well black plate with a final reaction volume of 20 uL in assay buffer. […] Dose-response curves were analyzed using IC50 regression curve fitting (GeneData Screener). Curves were normalized to a high controls without inhibitor, and low controls without enzyme.
# [3] = Homo sapiens, KYSE-520, 2 h, KYSE-520 cells, 2 hr compound incubation, phospho-ERK1/2 AlphaScreen SureFire
# [4] = full length PTPN11-E76K mutant enzyme 250 pM, read-out: PTPN11-E76K Avg IC50
# [5] = KYSE-520 cells, 2 hr compound incubation, phospho-ERK1/2 AlphaScreen SureFire
# [6] = PTPN11-E76K Avg IC50, full length PTPN11-E76K mutant enzyme 250 pM
Structure (SMILES),"IC50 [1, 3]","IC50 [2, 4]","IC50 [1, 5]","IC50 [2, 6]","IC50 ([1]; Homo sapiens, KYSE-520, 2 h)"
"N[C@@H]1CCCC12CCN(c1cnc3c(-c4cccc(Cl)c4)n[nH]c3n1)CC2 [Example 44, (R)-8-(3-(3-chloro-phenyl)-1H-pyrazolo[3,4-b]-pyrazin-6-yl)-8-aza-spiro[4.5]-decan-1-amine]",304 nM,429 nM,,,
"CC1(CN)CCN(c2cnc3c(-c4cc(Cl)cc(Cl)c4)n[nH]c3n2)CC1 [Example 11, (1-(3-(3,5-dichloro-phenyl)-1H-pyrazolo[3,4-b]-pyrazin-6-yl)-4-methylpiperidin-4-yl) methanamine]",1170 nM,632 nM,,,
"CC1(N)CCN(c2cnc3c(-c4cc(N)ncc4Cl)n[nH]c3n2)CC1 [Example 138, 4-[6-(4-amino-4-methylpiperidin-1-yl)-1H-pyrazolo[3,4-b]pyrazin-3-yl]-5-chloropyridin-2-amine]",406 nM,587 nM,,,
"COc1cccc(-c2n[nH]c3nc(N4CCC(C)(CN)CC4)cnc23)c1Cl [Example 27, (1-(3-(2-chloro-3-methoxy phenyl)-1H-pyrazolo[3,4-b]pyrazin-6-yl)-4-methylpiperidin-4-yl) methanamine]",55 nM,80 nM,,,
"N[C@@H]1COCC12CCN(c1cnc3c(-c4ccccc4Cl)n[nH]c3n1)CC2 [Example 39, (S)-8-(3-(2-chloro-phenyl)-1H-pyrazolo[3,4-b]-pyrazin-6-yl)-2-oxa-8-azaspiro[4.5]-decan-4-amine]",103 nM,158 nM,,,
"NC1C(F)CCC12CCN(c1cnc3c(-c4cccc(Cl)c4Cl)n[nH]c3n1)CC2 (single isomer, unassigned; isomer a) [Example 64A, 8-(3-(2,3-Dichlorophenyl)-1H-pyrazolo[3,4-b]pyrazin-6-yl)-2-fluoro-8-azaspiro[4.5]decan-1-amine, isomer A]",,,34 nM,98 nM,
"CC1(CN)CCN(c2cnc3c(-c4cccc(Cl)c4)n[nH]c3n2)CC1 [Example 9, (1-(3-(3-chloro-phenyl)-1H-pyrazolo[3,4-b]-pyrazin-6-yl)-4-methylpiperidin-4-yl)methanamine]",482 nM,367 nM,,,
"N[C@@H]1CCCC12CCN(c1cnc3c(-c4cccc(Cl)c4F)n[nH]c3n1)CC2 [Example 49, (R)-8-(3-(3-chloro-2-fluorophenyl)-1H-pyrazolo[3,4-b]-pyrazin-6-yl)-8-aza-spiro[4.5]decan-1-amine]",62 nM,143 nM,,,
"Nc1nccc(-c2n[nH]c3nc(N4CCC(N)(CO)CC4)cnc23)c1Cl [Example 119, (4-Amino-1-(3-(2-amino-3-chloropyridin-4-yl)-1H-pyrazolo[3,4-b]pyrazin-6-yl)-piperidin-4-yl)methanol]",1730 nM,422 nM,,,
"CC1(CN)CCN(c2cnc3c(-c4cc(N)ncc4Cl)n[nH]c3n2)CC1 [Example 133, 4-{6-[4-(amino-methyl)-4-methyl-piperidin-1-yl]-1H-pyrazolo[3,4-b]-pyrazin-3-yl}-5-chloropyridin-2-amine]",533 nM,840 nM,,,
"N[C@@H]1CCCC12CCN(c1cnc3c(-c4ccccc4Cl)n[nH]c3n1)CC2 [Example 54, (R)-8-(3-(2-chlorophenyl)-1H-pyrazolo[3,4-b]-pyrazin-6-yl)-8-aza-spiro[4.5]decan-1-amine]",64 nM,119 nM,,,
"CC1(N)CCN(c2cnc3c(-c4cc(Cl)cc(Cl)c4)n[nH]c3n2)CC1 [Example 12, 1-(3-(3,5-dichloro-phenyl)-1H-pyrazolo[3,4-b]-pyrazin-6-yl)-4-methylpiperidin-4-amine]",623 nM,404 nM,,,
"NCC1(O)CCN(c2cnc3c(-c4ccccc4Cl)n[nH]c3n2)CC1 [Example 60, 4-(aminomethyl)-1-(3-(2-chlorophenyl)-1H-pyrazolo[3,4-b]-pyrazin-6-yl)-piperidin-4-ol]",317 nM,918 nM,,,
"NCC1(O)CCN(c2cnc3c(-c4ccnc(N)c4Cl)n[nH]c3n2)CC1 [Example 114, 1-(3-(2-Amino-3-chloropyridin-4-yl)-1H-pyrazolo[3,4-b]pyrazin-6-yl)-4-(aminomethyl)piperidin-4-ol]",2490 nM,779 nM,,,
"NC1C(F)(F)CCC12CCN(c1cnc3c(-c4cccc(Cl)c4Cl)n[nH]c3n1)CC2 (single isomer, unassigned) [Example 65B, 8-(3-(2,3-Dichlorophenyl)-1H-pyrazolo[3,4-b]pyrazin-6-yl)-2,2-difluoro-8-azaspiro[4.5]decan-1-amine]",,,165 nM,471 nM,
"CC1(N)CCN(c2cnc3c(-c4ccnc(N)c4Cl)n[nH]c3n2)CC1 [Example 106, 4-(6-(4-Amino-4-methylpiperidin-1-yl)-1H-pyrazolo[3,4-b]pyrazine-3-yl)-3-chloropyridin-2-amine]",174 nM,253 nM,,,
"Nc1cc(-c2n[nH]c3nc(N4CCC5(CC4)COC[C@H]5N)cnc23)c(Cl)cn1 [Example 137, (4S)-8-[3-(2-amino-5-chloropyridin-4-yl)-1H-pyrazolo[3,4-b]pyrazin-6-yl]-2-oxa-8-azaspiro[4.5]-decan-4-amine]",1030 nM,504 nM,,,
"N[C@@H]1CCCC12CCN(c1cnc3c(-c4ccc(F)c(Cl)c4)n[nH]c3n1)CC2 [Example 47, (R)-8-(3-(3-chloro-4-fluorophenyl)-1H-pyrazolo[3,4-b]-pyrazin-6-yl)-8-aza-spiro[4.5]decan-1-amine]",343 nM,493 nM,,,
"NC1C(F)(F)CCC12CCN(c1cnc3c(-c4cccc(Cl)c4Cl)n[nH]c3n1)CC2 (single isomer, unassigned; isomer a) [Example 65A, 8-(3-(2,3-Dichlorophenyl)-1H-pyrazolo[3,4-b]pyrazin-6-yl)-2,2-difluoro-8-azaspiro[4.5]decan-1-amine, isomer A]",93 nM,,,235 nM,
"CC1(N)CCN(c2cnc3c(-c4cccc(N)c4Cl)n[nH]c3n2)CC1 [Example 105, 1-(3-(3-amino-2-chlorophenyl)-1H-pyrazolo[3,4-b]pyrazin-6-yl)-4-methylpiperidin-4-amine]",120 nM,191 nM,,,
"N[C@@H]1CCCC12CCN(c1cnc3c(-c4cn[nH]c4C(F)(F)F)n[nH]c3n1)CC2 [Example 102, (R)-8-(3-(5-(Trifluoromethyl)-1H-pyrazol-4-yl)-1H-pyrazolo[3,4-b]pyrazin-6-yl)-8-azaspiro[4.5]decan-1-amine]",1180 nM,2150 nM,,,
"Nc1nccc(-c2n[nH]c3nc(N4CCC5(CC4)COC[C@H]5N)cnc23)c1Cl [Example 116, (S)-8-(3-(2-Amino-3-chloropyridin-4-yl)-1H-pyrazolo[3,4-b]pyrazin-6-yl)-2-oxa-8-azaspiro[4.5]decan-4-amine]",483 nM,132 nM,,,
"CC1(N)CCN(c2cnc3c(-c4cccc(Cl)c4)n[nH]c3n2)CC1 [Example 10, 1-(3-(3-chloro-phenyl)-1H-pyrazolo[3,4-b]-pyrazin-6-yl)-4-methylpiperidin-4-amine]",172 nM,333 nM,,,
"CNc1nccc(-c2n[nH]c3nc(N4CCC5(CCC[C@H]5N)CC4)cnc23)c1Cl [Example 111, (R)-8-(3-(3-Chloro-2-(methylamino)pyridin-4-yl)-1H-pyrazolo[3,4-b]pyrazin-6-yl)-8-azaspiro[4.5]decan-1-amine]",20 nM,43 nM,,,
"N[C@@H]1CCCC12CCN(c1cnc3c(-c4ccnc(O)c4Cl)n[nH]c3n1)CC2 [Example 108, (R)-4-(6-(1-Amino-8-azaspiro[4.5]decan-8-yl)-1H-pyrazolo[3,4-b]pyrazin-3-yl)-3-chloropyridin-2-ol trifluoroacetate]",,726 nM,,,6800 nM
"CC1(N)CCN(c2cnc3c(-c4ccnc(O)c4Cl)n[nH]c3n2)CC1 [Example 117, 4-(6-(4-Amino-4-methylpiperidin-1-yl)-1H-pyrazolo[3,4-b]pyrazin-3-yl)-3-chloropyridin-2-ol]",4780 nM,1940 nM,,,
"CC1(N)CCN(c2cnc3c(-c4ccc(Cl)cc4)n[nH]c3n2)CC1 [Example 15, 1-(3-(4-Chlorophenyl)-1H-pyrazolo[3,4-b]pyrazin-6-yl)-4-methylpiperidin-4-amine]",103 nM,140 nM,,,
"Cc1ncccc1-c1n[nH]c2nc(N3CCC4(CCC[C@H]4N)CC3)cnc12 [Example 55, (R)-8-(3-(2-methyl-pyridin-3-yl)-1H-pyrazolo[3,4-b]-pyrazin-6-yl)-8-azaspiro[4.5]decan-I -amine]",712 nM,1140 nM,,,
"CC1(N)CCN(c2cnc3c(-c4cccc(F)c4Cl)n[nH]c3n2)CC1 [Example 24, 1-(3-(2-chloro-3-fluorophenyl)-1H-pyrazolo[3,4-b]-pyrazin-6-yl)-4-methyl-piperidin-4-amine]",142 nM,204 nM,,,
"N[C@@H]1CCCC12CCN(c1cnc3c(-c4cccc(C(F)(F)F)c4)n[nH]c3n1)CC2 [Example 48, (R)-8-(3-(3-(trifluoromethyl)-phenyl)-1H-pyrazolo[3,4-b]pyrazin-6-yl)-8-azaspiro[4.5]decan-1-amine]",586 nM,1760 nM,,,
